Literature values as cited in patent US20060019313A1, “Method for detecting molecular surface interactions” (Biacore AB, priority 2004, published 2006).

System: Anti-myoglobin IgG
Settings: stated as known; IgG used as reference

## CCC(Cc1c(I)cc(I)c(O)c1I)C(=O)O (stereo not drawn) [iophenoxic acid, α-ethyl-3-hydroxy-2,4,6-triiodohydro-cinnamic acid]
  binding to IgG: not to IgG
